# Test results published in patent publication EP0635577B1, “Screen for inhibitors of melanin biosynthesis” (BASF AKTIENGESELLSCHAFT, priority 1993, dated 1995).
# Where a name gives a salt, the structure may show the parent alone. Read-outs that look alike come from different tables or passages of the source.
# Tested on: Cladosporium cucumerinum
# Experiment: melanin biosynthesis inhibition screen, disk diffusion assay on solidified culture
# Type: cell-based
# Experimental: Potato dextrose medium (PDM) for the screening test is prepared by melting
# The mixture is autoclaved as 150 ml aliquots at 121°C for 25 minutes.
# A chloramphenicol stock solution is prepared to contain 15 mg chloramphenicol per mL absolute ethanol and is stored at -20°C.
# Conidia from Cladosporium cucumerinum, 10^7/mL in 0.03% Tween 20™, retain their viability for at least 12 weeks of storage in 1.8 ml cryovials at -85°C. Inoculum for running the screen are raised once every three months and stored without a cryoprotectant at the working concentration of 10^7 conidia/mL.
# Fresh inoculum suspensions are prepared from conidial suspensions stored at -85°C. A cryovial is thawed by hand-heat, and 200 uL spread on the surface of PDA in 9 cm Petri dishes. Plates are placed in a resin box (to prevent fungal escape) and incubated at room temperature, 40 cm below laboratory fluorescent lights. Seven days later conidia are collected. Five mL of 0.03% Tween 20™ is added to each plate, and the conidia are released by rubbing the mycelium with a glass rod. The suspension is passed through a layer of sterile Miracloth™ and the concentration adjusted to 10^7 conidia/mL in 0.03% Tween 20™ using a haemocytometer. Aliquots of 1 mL are dispensed into cryovials and placed in a polystyrene holder to freeze slowly to -85°C.
# For the test, 150 mL of PDM is cooled to 35°C, and 0.1 mL of chloramphenicol stock solution is added by gentle swirling. A vial of C. cucumerinum conidial suspension (10^7 conidia/ml in Tween 20™) thawed with hand-heat is mixed into the growth medium using gentle swirling. The mixture is poured immediately into a Biotray, and the agar is allowed to solidify.
# Test compounds are applied to 0.63 cm (¼ inch) filter disks. Each test includes a positive control, 200 ng tricyclazole in 20% dimethyl sulphoxide (DMSO). The plate is incubated at room-temperature (∼23°C) 40 cm below laboratory fluorescent lights. The plate is read 40 hours later. […] The Biotrays are autoclaved before disposal.
# The compounds are applied as 20 ul droplets from a 1 mg/ml stock solution.
# [1] = Antifungal Panel, growth inhibition zone, 20 ul droplets from a 1 mg/ml stock solution on filter disk, read 40 hours later
# [2] = Antifungal Panel, effect on growth and pigmentation in words, 20 ul droplets from a 1 mg/ml stock solution on filter disk, read 40 hours later
# [3] = C. cucumerinum Antibiotic Panel, growth inhibition zone, screen of Example 1
# [4] = C. cucumerinum Antibiotic Panel, effect on growth and pigmentation in words, screen of Example 1
compound,measurement,setting,value
Nc1nc(=O)[nH]cc1F [5-Fluoro-Cytosine],"Observation: inhibits, radius cleared",[1],"inhibits, 35 mm radius cleared"
Nc1nc[nH]n1 [Amino-triazole],"Observation: inhibits, radius cleared",[1],"inhibits, 13 mm radius cleared"
C[C@@H]1[C@H](O)[C@@H](C)/C=C/C=C/C=C/C=C/C=C/C=C/C=C/[C@H](O[C@@H]2O[C@H](C)[C@@H](O)[C@H](N)[C@@H]2O)C[C@@H]2O[C@](O)(C[C@@H](O)C[C@@H](O)[C@H](O)CC[C@@H](O)C[C@@H](O)CC(=O)O[C@H]1C)C[C@H](O)[C@H]2C(=O)O [Amphotericin B],Observation,[2],no effect on growth or pigmentation
Nc1ccn([C@@H]2O[C@H]([C@H](O[C@@H]3O[C@H](CO)[C@@H](O)[C@H](N)[C@H]3O)[C@@H](O)[C@@H](O)[C@H](O)[C@H](O)CO)[C@@H](N)[C@H](O)[C@H]2O)c(=O)n1 [Anthelmycin],"Observation: inhibits, radius cleared",[3],"inhibits, 14 mm radius cleared"
C[C@H]1CCC/C=C/[C@@H]2C[C@H](O)C[C@H]2[C@H](O)/C=C/C(=O)O1 [Ascotoxin],Observation,[4],no effect on growth or pigmentation
CCCCNC(=O)n1c(NC(=O)OC)nc2ccccc21 [Benomyl],"Observation: inhibits, radius cleared",[1],"inhibits, 31 mm radius cleared"
CC1=C(C(=O)Nc2ccccc2)SCCO1 [Carboxin],"Observation: inhibits, radius cleared",[1],"inhibits, 21 mm radius cleared"
C[C@@H]1C[C@@H]([C@H](O)CC2CC(=O)NC(=O)C2)C(=O)[C@@H](C)C1 [Cycloheximide],"Observation: inhibits, radius cleared",,"inhibits, 22 mm radius cleared"
CN[C@@H]1C[C@H](N)[C@@H](O)[C@H](O[C@@H]2O[C@H](CO)[C@H](O)[C@@H]3OC4(O[C@H]23)O[C@H]([C@@H](N)CO)[C@H](O)[C@H](O)[C@H]4O)[C@H]1O (stereo partly drawn) [Destomycin A],"Observation: inhibits, radius cleared",[3],"inhibits, 18 mm radius cleared"
CC(C)(C)C(O)/C(=C\c1ccc(Cl)cc1Cl)n1cncn1 (stereo not drawn) [Diniconazole],"Observation: inhibits, radius cleared",[1],"inhibits, 27 mm radius cleared"
Clc1ccc(COC(Cn2ccnc2)c2ccc(Cl)cc2Cl)cc1 (stereo not drawn) [Econazole],"Observation: inhibits, radius cleared",[1],"inhibits, 32 mm radius cleared"
OC(c1ccc(Cl)cc1)(c1cncnc1)c1ccccc1Cl (stereo not drawn) [Fenarimole],"Observation: inhibits, radius cleared",[1],"inhibits, 22 mm radius cleared"
C/C=C/[C@H]1O[C@@](O)([C@@H](C)[C@H](O)[C@H](C)[C@H]2OC(=O)/C(OC)=C/C(C)=C/[C@@H](C)[C@@H](O)[C@@H](CC)[C@@H](O)[C@H](C)C/C(C)=C/C=C/[C@@H]2OC)C[C@@H](O[C@H]2C[C@@H](O)[C@H](OC(N)=O)[C@@H](C)O2)[C@@H]1C [Folimycin],"Observation: inhibits, radius cleared",[3],"inhibits, 4 mm radius cleared"
CN1C(=O)[C@]23CC4=CC=C[C@H](O)[C@H]4N2C(=O)[C@@]1(CO)SS3 [Gliotoxin],"Observation: inhibits, radius cleared",,"inhibits, 17 mm radius cleared"
Clc1cc(Cl)c(OCC#CI)cc1Cl [Haloprofin],"Observation: inhibits, radius cleared",[1],"inhibits, 13 mm radius cleared"
NC[C@H]1O[C@H](O[C@H]2[C@H](O)[C@@H](O[C@H]3O[C@H](CO)[C@@H](O)[C@H](N)[C@H]3O)[C@H](N)C[C@@H]2N)[C@H](O)[C@@H](O)[C@@H]1O [Kanamycin],"Observation: inhibits, radius cleared",[1],"inhibits, 10 mm radius cleared"
CC(=O)N1CCN(c2ccc(OCC3COC(Cn4ccnc4)(c4ccc(Cl)cc4Cl)O3)cc2)CC1 (stereo not drawn) [Ketoconazole],"Observation: inhibits, radius cleared",[1],"inhibits, 26 mm radius cleared"
COCC(=O)N(c1c(C)cccc1C)C(C)C(=O)OC (stereo not drawn) [Metalaxyl],Observation,[2],no effect on growth or pigmentation
Clc1ccc(COC(Cn2ccnc2)c2ccc(Cl)cc2Cl)c(Cl)c1 (stereo not drawn) [Miconazole],"Observation: inhibits, radius cleared",[1],"inhibits, 31 mm radius cleared"
COc1oc([C@H]2C/C(=C/C(C)=C/c3ccc([N+](=O)[O-])cc3)CO2)c(C)c(=O)c1C [Mycolutein],"Observation: fungal thinning, radius","C. cucumerinum Antibiotic Panel, screen of Example 1","fungal thinning, 16 mm radius"
C[C@H]1C[C@H](C)C(=O)[C@@H]([C@H](O)CC2CC(=O)NC(=O)C2)C1 [Naramycin B],"Observation: inhibits, radius cleared",[3],"inhibits, 15 mm radius cleared"
C[C@@H]([C@H](N)C(=O)N[C@H](C(=O)O)[C@H]1O[C@@H](n2ccc(=O)[nH]c2=O)[C@H](O)[C@@H]1O)[C@H](O)c1ccc(O)cn1 [Nikkomycin],"Observation: inhibits, radius cleared",[1],"inhibits, 38 mm radius cleared"
Cc1cc(=O)n2c3c(c4c(cc13)c(CO)cc(=O)n4C)OC2 [Nybomycin],Observation,[4],no effect on growth or pigmentation
CCCCC[C@@H](O)[C@H]1C(=O)O[C@H](C)[C@@H](O)/C=C/C=C/C=C/C=C/C=C(\C)[C@@H](O)[C@H](O)[C@H](O)C[C@H](O)C[C@H](O)C[C@H](O)C[C@H](O)C[C@@H]1O [Pentamycin],Observation,[4],no effect on growth or pigmentation
CP(=O)(O)CC[C@H](N)C(=O)O [Phosphenothricin],"Observation: inhibits, radius cleared",[1],"inhibits, 20 mm radius cleared"
NC(=O)OC[C@H](O)[C@@H](O)[C@H](N)C(=O)N[C@H](C(=O)O)[C@H]1O[C@@H](n2cc(C(=O)O)c(=O)[nH]c2=O)[C@H](O)[C@@H]1O [Polyoxin D],"Observation: inhibits, radius cleared",[1],"inhibits, 7 mm radius cleared"
CN(C)c1ncnc2c1ncn2[C@@H]1O[C@H](CO)[C@@H](N)[C@H]1O [Puromycin Aminonucleoside],Observation,[4],no effect on growth or pigmentation
CC1CCC(=O)C=CC(=O)OC(C)CCC(=O)C=CC(=O)O1 (stereo not drawn) [Pyrenophorin],"Observation: inhibits, radius cleared",[3],"inhibits, 12 mm radius cleared"
C[C@@H]1C[C@@H]2CCCC(O)=C2C(=O)O1 [Ramulosin],Observation,[4],no effect on growth or pigmentation
C=CC1(C)OC(=O)N(c2cc(Cl)cc(Cl)c2)C1=O (stereo not drawn) [Ronilon],Observation,[2],very slight effect on growth
Cc1cc(O)c2c(c1)C(=O)[C@]13C(=C2O)C(=O)[C@@H]2[C@H](O)[C@H]1[C@@H]1[C@@H](O)[C@H]3C(=O)C3=C(O)c4c(O)cc(C)cc4C(=O)[C@]312 [Rugulosin],"Observation: inhibits, radius cleared",[3],"inhibits, 9 mm radius cleared"
CSC[S@+]([O-])C[C@H](CO)NC(=O)/C=C/c1c(C)[nH]c(=O)[nH]c1=O [Sparsomycin],Observation,[4],no effect on growth or pigmentation
[H]/N=C(/N)N[C@H]1[C@H](O)[C@@H](O)[C@H](O[C@@H]2O[C@@H](C)[C@](O)(C=O)[C@H]2O[C@@H]2O[C@@H](CO)[C@H](O)[C@@H](O)[C@@H]2NC)[C@@H](N/C(N)=N\[H])[C@@H]1O [Streptomycin Sulfate],Observation,[4],no effect on growth or pigmentation
COC(=O)c1ccccc1S(=O)(=O)NC(=O)Nc1nc(C)cc(C)n1 [Sulfometuron methyl],"Observation: inhibits, radius cleared",[1],"inhibits, 6 mm radius cleared"
C[C@@H]1C/C=C/C=C/C=C/C=C/[C@H](O[C@@H]2O[C@H](C)[C@@H](O)[C@H](N)[C@@H]2O)C[C@@H]2O[C@](O)(C[C@@H](O)C[C@H]3O[C@@H]3/C=C/C(=O)O1)C[C@H](O)[C@H]2C(=O)O [Tennecetin],Observation,[4],no effect on growth or pigmentation
CC(=O)Nc1c2sscc-2n(C)c1=O [Thiolutin],"Observation: inhibits, radius cleared",[3],"inhibits, 23 mm radius cleared"
Cc1cccc(N(C)C(=S)Oc2ccc3ccccc3c2)c1 [Tolnaftate],"Observation: inhibits, radius cleared",[1],"inhibits, 13 mm radius cleared"
CCCCCCCCCCCCCN1CC(C)OC(C)C1 (stereo not drawn) [Tridemorph],"Observation: inhibits, radius cleared",[1],"inhibits, 6 mm radius cleared"
Nc1ncnc2c1ccn2[C@@H]1O[C@H](CO)[C@@H](O)[C@H]1O [Tubercidin],"Observation: fungal thinning, radius",,"fungal thinning, 10 mm radius"
CC[C@H]1OC(=O)C[C@@H](O)[C@H](C)[C@@H](O[C@@H]2O[C@H](C)[C@@H](O[C@H]3C[C@@](C)(O)[C@@H](O)[C@H](C)O3)[C@H](N(C)C)[C@H]2O)[C@@H](CC=O)C[C@@H](C)C(=O)/C=C/C(C)=C/[C@@H]1CO[C@@H]1O[C@H](C)[C@@H](O)[C@@H](OC)[C@H]1OC [Tylosin Tartrate],Observation,[4],no effect on growth or pigmentation
CN[C@H](CC(C)C)C(=O)N[C@H]1C(=O)N[C@@H](CC(N)=O)C(=O)N[C@H]2C(=O)N[C@H]3C(=O)N[C@H](C(=O)N[C@H](C(=O)O)c4cc(O)cc(O)c4-c4cc3ccc4O)[C@H](O)c3ccc(c(Cl)c3)Oc3cc2cc(c3O[C@@H]2O[C@H](CO)[C@@H](O)[C@H](O)[C@H]2O[C@H]2C[C@](C)(N)[C@H](O)[C@H](C)O2)Oc2ccc(cc2Cl)[C@H]1O [Vancomycin HCl],Observation,,no effect on growth or pigmentation
Antimycin,"Observation: inhibits, radius cleared",[1],"inhibits, 13 mm radius cleared"
Aureofungin,Observation,[4],no effect on growth or pigmentation
Azalomycin,"Observation: inhibits, radius cleared",[3],"inhibits, 14 mm radius cleared"
Dermostatin,Observation,[4],no effect on growth or pigmentation
Flavofungin,Observation,[4],no effect on growth or pigmentation
Hamycin,Observation,[4],no effect on growth or pigmentation
Maneb,Observation,[2],"no effect on pigmentation, growth thin"
